pEC50, pIC50: −log10 of the molar value.
What was measured:
[1] = biological target: T1, Glutamate receptor ionotropic, AMPA (Rattus norvegicus, UniProt P19490+P19491+P19492+P19493); assay: Inhibition of binding to AMPA receptor from rat cerebral cortex; type: tissue-based
[2] = biological target: T1, Glutamate receptor ionotropic, AMPA; assay: Effective concentration of glutamate required to increase specific binding of [3H]6 to rat cerebral cortical membranes.
[3] = biological target: T1, Glutamate receptor ionotropic, AMPA; assay: Effective concentration of AMPA required to increase specific binding of [3H]6 to rat cerebral cortical membranes.

SMILES | pIC50 [1] | pEC50 [2] | pEC50 [3]
NS(=O)(=O)c1cc2c(cc1Cl)NC(C1CC3C=CC1C3)NS2(=O)=O (centres undefined) [CYCLOTHIAZIDE] | 5.21 | – | –
CC(CNS(=O)(=O)C(C)C)c1ccc(NC(=O)c2ccccc2)cc1 (centres undefined) | 6.77 | 4.51 | 5.26

Source: ChEMBL document CHEMBL1134333, “[3H]N-2-(4-(N-benzamido)phenyl)propyl-2-propanesulfonamide: a novel AMPA receptor potentiator and radioligand” (J Med Chem, 2001)
